Measurements: ChEMBL document CHEMBL5131475, “Metallo-β-lactamases inhibitor fisetin attenuates meropenem resistance in NDM-1-producing Escherichia coli” (Eur J Med Chem, 2022)
Values after ≈ are worked out from the molar mass of the structure shown. Active and inactive are the calls of the source. The rule behind the calls is not given here.

How the values were obtained:
Escherichia coli [1] = experiment: Antibacterial activity against NDM-1 positive Escherichia coli ZC-YN3 isolates assessed as doxycycline MIC incubated for 18 to 24 hrs by CLSI based broth microdilution method; assay type: functional; settings: time 18-24 hrs
Escherichia coli [2] = experiment: Antibacterial activity against pET28a-NDM-1 positive Escherichia coli BL21(DE3) isolates assessed as meropenem MIC incubated for 18 to 24 hrs by CLSI based broth microdilution method; assay type: functional; settings: time 18-24 hrs
Escherichia coli [3] = experiment: Antibacterial activity against pET28a-NDM-1 positive Escherichia coli BL21(DE3) isolates assessed as kanamycin MIC incubated for 18 to 24 hrs by CLSI based broth microdilution method; assay type: functional; settings: time 18-24 hrs
Escherichia coli [4] = experiment: Antibacterial activity against pET28a-NDM-1 positive Escherichia coli BL21(DE3) isolates assessed as vancomycin MIC incubated for 18 to 24 hrs by CLSI based broth microdilution method; assay type: functional; settings: time 18-24 hrs
Escherichia coli [5] = experiment: Antibacterial activity against pET28a-NDM-1 positive Escherichia coli BL21(DE3) isolates assessed as cefotaxime MIC incubated for 18 to 24 hrs by CLSI based broth microdilution method; assay type: functional; settings: time 18-24 hrs
Escherichia coli [6] = experiment: Antibacterial activity against pET28a-NDM-1 positive Escherichia coli BL21(DE3) isolates assessed as imipenem MIC incubated for 18 to 24 hrs by CLSI based broth microdilution method; assay type: functional; settings: time 18-24 hrs
Escherichia coli [7] = experiment: Antibacterial activity against pET28a-NDM-1 positive Escherichia coli BL21(DE3) isolates assessed as rifampicin MIC incubated for 18 to 24 hrs by CLSI based broth microdilution method; assay type: functional; settings: time 18-24 hrs
Escherichia coli [8] = experiment: Antibacterial activity against NDM-1 positive Escherichia coli ZC-YN3 isolates assessed as meropenem MIC incubated for 18 to 24 hrs by CLSI based broth microdilution method; assay type: functional; settings: time 18-24 hrs
Escherichia coli [9] = experiment: Antibacterial activity against NDM-1 positive Escherichia coli ZC-YN3 isolates assessed as spectinomycin MIC incubated for 18 to 24 hrs by CLSI based broth microdilution method; assay type: functional; settings: time 18-24 hrs
Escherichia coli [10] = experiment: Antibacterial activity against NDM-1 positive Escherichia coli ZC-YN3 isolates assessed as streptomycin MIC incubated for 18 to 24 hrs by CLSI based broth microdilution method; assay type: functional; settings: time 18-24 hrs
Escherichia coli [11] = experiment: Antibacterial activity against NDM-1 positive Escherichia coli ZC-YN3 isolates assessed as rifampicin MIC incubated for 18 to 24 hrs by CLSI based broth microdilution method; assay type: functional; settings: time 18-24 hrs
Escherichia coli [12] = experiment: Antibacterial activity against NDM-1 negative Escherichia coli BL21(DE3) (pET28a) isolates assessed as meropenem MIC incubated for 18 to 24 hrs by CLSI based broth microdilution method; assay type: functional; settings: time 18-24 hrs
Escherichia coli [13] = experiment: Synergistic antibacterial activity against pET28a NDM-1 positive Escherichia coli BL21(DE3) isolates assessed as fractional Inhibitory concentration index incubated for 18 to 24 hrs in presence of ampicillin by CLSI based broth microdilution method; assay type: functional; settings: time 18-24 hrs
Escherichia coli [14] = experiment: Synergistic antibacterial activity against pET28a NDM-1 positive Escherichia coli BL21(DE3) isolates assessed as fractional Inhibitory concentration index incubated for 18 to 24 hrs in presence of vancomycin by CLSI based broth microdilution method; assay type: functional; settings: time 18-24 hrs
Escherichia coli [15] = experiment: Synergistic antibacterial activity against pET28a NDM-1 positive Escherichia coli BL21(DE3) isolates assessed as fractional Inhibitory concentration index incubated for 18 to 24 hrs in presence of cefotaxime by CLSI based broth microdilution method; assay type: functional; settings: time 18-24 hrs
Escherichia coli [16] = experiment: Synergistic antibacterial activity against pET28a NDM-1 positive Escherichia coli BL21(DE3) isolates assessed as fractional Inhibitory concentration index incubated for 18 to 24 hrs in presence of rifampicin by CLSI based broth microdilution method; assay type: functional; settings: time 18-24 hrs
Escherichia coli [17] = experiment: Synergistic antibacterial activity against pET28a NDM-1 positive Escherichia coli BL21(DE3) isolates assessed as fractional Inhibitory concentration index incubated for 18 to 24 hrs in presence of colistin by CLSI based broth microdilution method; assay type: functional; settings: time 18-24 hrs
Escherichia coli [18] = experiment: Synergistic antibacterial activity against NDM-1 positive Escherichia coli ZC-YN3 isolates assessed as fractional Inhibitory concentration index incubated for 18 to 24 hrs in presence of meropenem by CLSI based broth microdilution method; assay type: functional; settings: time 18-24 hrs
Escherichia coli [19] = experiment: Synergistic antibacterial activity against NDM-1 positive Escherichia coli ZC-YN3 isolates assessed as fractional Inhibitory concentration index incubated for 18 to 24 hrs in presence of ampicillin by CLSI based broth microdilution method; assay type: functional; settings: time 18-24 hrs
Escherichia coli [20] = experiment: Synergistic antibacterial activity against NDM-1 positive Escherichia coli ZC-YN3 isolates assessed as fractional Inhibitory concentration index incubated for 18 to 24 hrs in presence of kanamycin by CLSI based broth microdilution method; assay type: functional; settings: time 18-24 hrs
Escherichia coli [21] = experiment: Synergistic antibacterial activity against NDM-1 positive Escherichia coli ZC-YN3 isolates assessed as fractional Inhibitory concentration index incubated for 18 to 24 hrs in presence of ciprofloxacin by CLSI based broth microdilution method; assay type: functional; settings: time 18-24 hrs
Escherichia coli [22] = experiment: Synergistic antibacterial activity against NDM-1 positive Escherichia coli ZC-YN3 isolates assessed as fractional Inhibitory concentration index incubated for 18 to 24 hrs in presence of spectinomycin by CLSI based broth microdilution method; assay type: functional; settings: time 18-24 hrs
Escherichia coli [23] = experiment: Synergistic antibacterial activity against NDM-1 positive Escherichia coli ZC-YN3 isolates assessed as fractional Inhibitory concentration index incubated for 18 to 24 hrs in presence of streptomycin by CLSI based broth microdilution method; assay type: functional; settings: time 18-24 hrs
Escherichia coli [24] = experiment: Synergistic antibacterial activity against NDM-1 positive Escherichia coli ZC-YN3 isolates assessed as fractional Inhibitory concentration index incubated for 18 to 24 hrs in presence of imipenem by CLSI based broth microdilution method; assay type: functional; settings: time 18-24 hrs
Escherichia coli [25] = experiment: Synergistic antibacterial activity against NDM-1 positive Escherichia coli ZC-YN3 isolates assessed as fractional Inhibitory concentration index incubated for 18 to 24 hrs in presence of colistin by CLSI based broth microdilution method; assay type: functional; settings: time 18-24 hrs
[26] = Inhibition of class A […]beta-lactamase KPC-2 (unknown origin) using nitrocefin as substrate preincubated for 15 min followed by substrate addition and measured after 15 min by microplate reader assay; set-up: species or system Bacteria
Mus musculus [27] = experiment: Antibacterial activity in BALB/c mouse infected with NDM-1 positive Escherichia coli ZJ487 assessed as increase in survival rate at 10 mg/kg, sc administered every 12 hrs and measured after 96 hrs post infection; assay type: functional
Mus musculus [28] = experiment: Synergistic antibacterial activity in BALB/c mouse infected with NDM-1 positive Escherichia coli ZJ487 assessed as increase in survival rate at 50 mg/kg, sc administered every 12 hrs and measured after 96 hrs post infection in presence of meropenem; assay type: functional
Bacteria [29] = experiment: Binding affinity to NDM-1 (unknown origin) assessed as binding free energy by fluorescence quenching method
Bacteria [30] = experiment: Binding affinity to NDM-1 H250A mutant (unknown origin) assessed as binding free energy by fluorescence quenching method
Bacteria [31] = experiment: Inhibition of NDM-1 M248A mutant activity (unknown origin) in presence of zinc ion
Mus musculus [32] = experiment: Antibacterial activity in BALB/c mouse infected with NDM-1 positive Escherichia coli ZJ487 assessed as mouse death rate at 50 mg/kg, sc administered every 12 hrs and measured after 96 hrs post infection; assay type: functional
Bacteria [33] = test system: Bacteria
Description: Binding affinity to NDM-1 M248A mutant (unknown origin) assessed as binding constant by fluorescence quenching method

Bacteria [34] = test system: Bacteria; remark: listed apart in the source
Description: Binding affinity to NDM-1 H250A mutant (unknown origin) assessed as binding constant by fluorescence quenching method

`O=c1c(O)c(-c2ccc(O)c(O)c2)oc2cc(O)ccc12` [FISETIN] showed an MIC (Escherichia coli [1]) of 53.3 µg/mL, an MIC (Escherichia coli [2]) of 4.67 µg/mL and an MIC (Escherichia coli [3]) of 512 µg/mL. It also gave an MIC (Escherichia coli [4]) of 683 µg/mL, an MIC (Escherichia coli [5]) of 512 µg/mL and an MIC (Escherichia coli [6]) of 9.33 µg/mL. It also gave an MIC (Escherichia coli [7]) of 853 µg/mL, an MIC (Escherichia coli [8]) of 4 µg/mL and an MIC (Escherichia coli [9]) of 853 µg/mL. The MIC (Escherichia coli [10]) was 256 µg/mL, the MIC (Escherichia coli [11]) was 10.7 µg/mL and the MIC (Escherichia coli [12]) was 0.01 µg/mL. For the same compound, the “fractional inhibitory concentration index (FICI)” value (Escherichia coli [13]) was 0.96, the “fractional inhibitory concentration index (FICI)” value (Escherichia coli [14]) was 1.13 and the “fractional inhibitory concentration index (FICI)” value (Escherichia coli [15]) was 1.13. The “fractional inhibitory concentration index (FICI)” value (Escherichia coli [16]) was 0.96, the “fractional inhibitory concentration index (FICI)” value (Escherichia coli [17]) was 1.13 and the “fractional inhibitory concentration index (FICI)” value (Escherichia coli [18]) was 0.31. For the same compound, the “fractional inhibitory concentration index (FICI)” value (Escherichia coli [19]) was 1.13, the “fractional inhibitory concentration index (FICI)” value (Escherichia coli [20]) was 1.13 and the “fractional inhibitory concentration index (FICI)” value (Escherichia coli [21]) was 1.13. For the same compound, the “fractional inhibitory concentration index (FICI)” value (Escherichia coli [22]) was 1.13, the “fractional inhibitory concentration index (FICI)” value (Escherichia coli [23]) was 1.13 and the “fractional inhibitory concentration index (FICI)” value (Escherichia coli [24]) was 0.38. For the same compound, the “fractional inhibitory concentration index (FICI)” value (Escherichia coli [25]) was 1.13, the IC50 [26] was 2.63 µg/mL (≈ 9.19 µM) and the Activity (Mus musculus [27]) was 20%. It also gave an Activity (Mus musculus [28]) of 60%, an Activity (Bacteria [29]) of -25 kcal/mol and an Activity (Bacteria [30]) of -12.4 kcal/mol. For the same compound, the inhibition (Bacteria [31]) was “Active”, the Activity (Mus musculus [32]) was 90% and the Ka (Bacteria [33]) was 7.39 10^5L/mol. The Ka (Bacteria [34]) was 6.95 10^5L/mol.
